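Assay format: 96-well plates, 48-hour exposure. GI50 marks 50% less growth.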 Activity calls are given as the source filed them. Cut-off read from the data, not from the text of the source: active = GI50 up to about 1.1 µM and inactive = higher.
What was measured:
Assay in all cases: NCI anticancer screen, dose series, 48 h
SR = system: SR
RPMI-8226 = system: RPMI-8226
HOP-92 = system: HOP-92
MCF7 = system: MCF7
NCI-H522 = system: NCI-H522
DU-145 = system: DU-145
LOX IMVI = system: LOX IMVI
TK-10 = system: TK-10
SF-268 = system: SF-268
HOP-62 = system: HOP-62
HCT-116 = system: HCT-116
NCI-H23 = system: NCI-H23
SK-MEL-2 = system: SK-MEL-2
NCI-H460 = system: NCI-H460
SK-MEL-5 = system: SK-MEL-5
HL-60 = system: HL-60
SW-620 = system: SW-620
OVCAR-4 = system: OVCAR-4
BT-549 = system: BT-549
SF-295 = system: SF-295

Measured: GI50

C/C(=N\Nc1nc2ccccc2s1)c1cc(C)ncn1
active: SR 0.259 µM | RPMI-8226 0.337 µM | MCF7 0.341 µM | NCI-H522 0.07 µM | LOX IMVI 0.499 µM | SF-268 0.318 µM | HCT-116 0.1 µM | NCI-H23 0.741 µM | NCI-H460 0.426 µM | SK-MEL-5 0.459 µM | HL-60 0.0776 µM | SW-620 0.352 µM
inactive: HOP-92 1.54 µM | DU-145 2.19 µM | TK-10 15.3 µM | HOP-62 1.34 µM | SK-MEL-2 3.78 µM | OVCAR-4 1.7 µM | BT-549 6.79 µM | SF-295 2.73 µM

COc1cc2c(cc1OC)C(=O)/C(=C/c1ccccc1)CC2
inactive: SR 13.5 µM | RPMI-8226 23.4 µM | HOP-92 24.8 µM | MCF7 27.3 µM | NCI-H522 52.6 µM | DU-145 83.2 µM | LOX IMVI 32.7 µM | TK-10 33.4 µM | SF-268 46.7 µM | HOP-62 > 100 µM | HCT-116 23.8 µM | NCI-H23 > 100 µM | SK-MEL-2 14.1 µM | NCI-H460 26.9 µM | SK-MEL-5 17.1 µM | SW-620 40.4 µM | OVCAR-4 62.4 µM | BT-549 12.5 µM | SF-295 20.7 µM
active: HL-60 0.0426 µM

CSc1nc2ccccc2c(=O)n1-c1cccc(C)c1
inactive: SR 15.7 µM | RPMI-8226 39.4 µM | HOP-92 26.5 µM | MCF7 32.5 µM | NCI-H522 67.8 µM | DU-145 > 100 µM | LOX IMVI 53.1 µM | TK-10 > 100 µM | SF-268 99.1 µM | HOP-62 > 100 µM | HCT-116 47.8 µM | NCI-H23 > 100 µM | SK-MEL-2 70.5 µM | NCI-H460 36 µM | SK-MEL-5 21.9 µM | HL-60 2.58 µM | SW-620 31.9 µM | OVCAR-4 86.7 µM | BT-549 > 100 µM | SF-295 95.5 µM

Cc1ccnc(NS(=O)(=O)c2ccc(N=[N+]=[N-])cc2)n1
inactive: SR 1.34 µM | RPMI-8226 > 100 µM | HOP-92 > 100 µM | MCF7 > 100 µM | NCI-H522 > 100 µM | DU-145 > 100 µM | LOX IMVI > 100 µM | TK-10 > 100 µM | SF-268 > 100 µM | HOP-62 > 100 µM | HCT-116 > 100 µM | NCI-H23 > 100 µM | SK-MEL-2 > 100 µM | NCI-H460 > 100 µM | SK-MEL-5 > 100 µM | HL-60 > 46.9 µM | SW-620 > 100 µM | OVCAR-4 > 100 µM | BT-549 > 100 µM | SF-295 > 100 µM

COc1ccc2c(c1)[C@@]13CCN4CC5=CCO[C@H]6CC(=O)N2[C@H]1[C@H]6[C@H]5C[C@H]43
inactive: SR 27.5 µM | RPMI-8226 > 100 µM | HOP-92 95.7 µM | MCF7 > 100 µM | NCI-H522 72.3 µM | DU-145 > 100 µM | LOX IMVI > 100 µM | TK-10 76.6 µM | SF-268 > 100 µM | HOP-62 > 100 µM | HCT-116 > 100 µM | NCI-H23 > 100 µM | SK-MEL-2 > 100 µM | NCI-H460 > 100 µM | SK-MEL-5 > 100 µM | HL-60 18.1 µM | SW-620 > 100 µM | OVCAR-4 > 100 µM | BT-549 > 100 µM | SF-295 70 µM

Reference: ChEMBL document CHEMBL1201862, “PubChem BioAssay data set” (2004)
